Source: patent US4255585A, “Benzoheterocyclic derivatives of phenoxyacetic acid” (Centre European de Recherches Pharmacologique, priority 1975, dated 1981)
Read-outs that look alike come from different tables or passages of the source.

Legend:
[1] = Diuretic activity (diuresis, Na+, K+, uric acid excretion); type: in vivo, Male Swiss C.D. mice; settings: mice; for Uricosuria (coefficient): uric acid by Caraway's method; for Diuresis (coefficient) / K+ (coefficient) / Na+ (coefficient) / Na+/K+: urine sampled 2 and 4 hours
Method: The three compounds were administered to Male Swiss C.D. mice of average weight 22 g. The animals were deprived of food and drink for 2 hours prior to treatment.
The animals were grouped two by two in cages where their metabolism is to be monitored. Sampling of the urine 2 and 4 hours after treatment. The experiments were made per lot of six pairs. The products were administered at constant volume.
The following determinations were made:
Na^+ and K^+ ions expressed in milliequivalents (Millival or M. Eq.) excreted in 2 or 4 hours (Eppendorf Flame Photometer);
uric acid excreted expressed in mg/2 or 4 hours determined by Caraway's method (Amer. J. Clin. Pathol. 1955. 25 840).
They are considered in the form of the coefficient: [formula]

in vivo = settings: for LD50 at 48 h: mouse, in vivo, po, read-out: LD 50 per os
Method: The three compounds were administered in the usual way to lots of 10 male mice (Swiss C.D.) of average weight 20 g. Mortality was assessed after 48 hours for toxicity per os.

[2] = male Swiss C.D. mice, per os, mortality after 48 hours

SMILES | Uricosuria (coefficient) ([1]; 20 mg/kg P.O.) | Diuresis (coefficient) ([1]; 20 mg/kg P.O.) | K+ (coefficient) ([1]; 20 mg/kg P.O.) | Na+ (coefficient) ([1]; 20 mg/kg P.O.) | Na+/K+ ([1]; 20 mg/kg P.O.) | Uricosuria (coefficient) ([1]; 100 mg/kg P.O.) | Diuresis (coefficient) ([1]; 100 mg/kg P.O.) | K+ (coefficient) ([1]; 100 mg/kg P.O.) | Na+ (coefficient) ([1]; 100 mg/kg P.O.) | Na+/K+ ([1]; 100 mg/kg P.O.) | MLD per os (in vivo; [2]) [mg/kg] | LD50 at 48 h (in vivo; [2]) [mg/kg] | LD50 at 48 h (in vivo) [mg/kg]
NS(=O)(=O)c1cc(C(=O)O)c(NCc2ccco2)cc1Cl [furosemide, reference compound] | 1.34 | 3.0 | 1.51 | 4.28 | 2.83 |  |  |  |  |  |  |  | 
O=C(O)COc1ccc(C(=O)c2cc3ccccc3s2)c(Cl)c1Cl [Example 2, 4-(2-benzothienyl-keto)-2,3-dichloro-phenoxyacetic acid] |  |  |  |  |  | 1.05 | 1.2 | 0.91 | 1.18 | 1.29 | > 1000 |  | 
C=C(CC)C(=O)c1ccc(OCC(=O)O)c(Cl)c1Cl [ethacrynic acid, reference compound] | 1.27 | 2.4 | 1.48 | 2.76 | 1.87 |  |  |  |  |  |  | 600 | 
O=C(O)COc1ccc(C(=O)c2sc3ccccc3c2Cl)c(Cl)c1Cl [Example 3, 4-[2-(3-chloro)-benzothienyl-keto]-2,3-dichloro-phenoxy acetic acid] |  |  |  |  |  | 1.26 | 1.3 | 1.17 | 1.29 | 1.10 |  |  | > 1000
O=C(O)COc1ccc(C(=O)c2cc3ccccc3o2)c(Cl)c1Cl [Example 1, 4-(2-benzofuryl-keto)-2,3-dichloro-phenoxyacetic acid] |  |  |  |  |  | 1.56 | 1.3 | 1.74 | 1.52 | 0.87 |  | < 1000 | 
CCc1oc2ccccc2c1C(=O)c1cc(I)c(O)c(I)c1 [benziodarone, reference compound] | 1.44 |  |  |  |  |  |  |  |  |  |  |  | 
